# How the values were obtained:
# Type in all cases: cell-based
# MCF7 cells = assay: crystal violet assay, cellular viability (cytostatic and cytotoxic effect), 48 hrs; conditions: Homo sapiens, MCF7, 48 h, MCF7 (parental/control), crystal violet, read-out: IC50
# Description: (§1) Compound 1 and a comparative compound deferasirox (DFX) were tested in their efficacy to kill/suppress proliferation of malignant breast cancer MCF7 cells representing estrogen-dependent type of breast cancer. Briefly, 10.000 cells per well were seeded in a 96-well plate on one day and the next day the tested compounds were added and incubated with the cells for 48 hrs. The cells were then fixed with 4% paraformaldehyde, stained with 0.05% crystal violet, washed with PBS, and solubilized in 1% SDS. The absorbance of the plate at 595 nm was then measured, quantifying the number of viable cells.
# MDA-MB-231 cells = assay: crystal violet assay, cellular viability, 48 hrs; conditions: Homo sapiens, MDA-MB-231, 48 h, MDA-MB-231, crystal violet, read-out: IC50
# Description: as §1
# Compound 1 and the comparative compound deferasirox were tested in their efficacy to kill/suppress proliferation of malignant MDA-MB-231 cancer cells representing hard to treat triple negative breast cancer. The procedure is identical to that in example 12.
# cancer cell lines = assay: crystal violet assay, cancer cell lines overall; conditions: cancer cells, crystal violet
# Description: as §1
# MCF7 [1] = assay: annexin V/PI staining, cell death induction, 48 hrs
# Description: (§2) This effect seems to be based mainly on the cytostatic effect of compound 1. To define the ability to kill cells, cell death-inducing potency (cytotoxic efficacy) of DFX and compound 1 have been tested via annexin V/PI staining commonly used as a measure of apoptotic/necrotic cell death. Briefly, cells were seeded in 12-well plate at 100,000 per well, incubated with the selected compounds for 48 hours, then floating cells were spun, adherent cells trypsinized and spun as well followed by the staining with AnnexinV-FITC and PI probes. Cells were then washed with PBS and measured via Fluorescence Activated Sorter.
# (§3) Since compound 1 is an iron chelator, we have evaluated the effect of pre-loading compound 1 with iron at a 2:1 ratio and then applying it to the cells, followed by measurement of cell death using the Annexin V/PI staining as in example 4.
# MDA-MB-231 [2] = assay: as above
# Description: as §2, §3
# [3] = test system: MCF7 mammospheres (cancer stem-like cells); assay: formation and growth of mammospheres, Cell Titer Glo 3D; conditions: 1 μM, 140 hrs
# Description: To test the effect of compound 1 on the viability and proliferation of other resistant cancer cell types, we utilized a model of cancer stem-like cells that can be cultivated in vitro, so-called “mammospheres”. […] In this assay MCF7 spheres were dissociated to single cells/small spheres, seeded 10,000 cells per well on a special cell culture plastic that is non adherent in the Mammocult medium (Stem cell technologies) and compound 1 and compound 2 at 1 μM were added. This represents the non-cytotoxic concentration. Cells were left to grow and generate spheres for 140 hrs. The amount of cells was then measured by the Cell TiterGlo 3D reagent (Promega) that determines cell counts of 3D cultured cells as a function of their ATP content that is determined by a chemiluminescent assay.
# MCF7 [4] = assay: cell cycle distribution, Vybrant DyeCycle Violet, flow cytometry; conditions: 1 μM
# Description: (§4) In order to define the effect on cellular level, we investigated the effect of compound 1 and 2 at non-cytotoxic concentrations of the drugs (1 μM) on cell cycle. Cells were cultivated with the compounds for 24 and 48 hrs and then stained with Vybrant DyeCycle VioletReady Flow reagent (ThermoFisher Scientific) that binds to DNA and analyzed by Flow cytometry and Kaluza program to define the proportions of G1,S and G2/M phases of cell cycle. It is evident that both compounds lead to accumulation of cells in G1 phase if the cell cycle, which become more prominent at later time points (see Table 12, 13).
# MDA-MB-231 [5] = assay: as above; conditions: 1 μM
# Description: as §4
# MCF7 [6] = assay: cellular ROS, DCF-DA probe, flow cytometry; conditions: 5 μM
# Description: (§5) The effect of compound 1 on generation of cellular reactive oxygen species (ROS) was evaluated in MCF7 and MDA-MB-231 cells using a cell permeable ROS probe 2′,7′-dichlorodihydrofluorescein diacetate (DCF-DA; Sigma-Aldrich) that measures several reactive species and becomes fluorescent upon oxidation. Cells treated with compound 1 or compound 2 (5 μM) for the described time interval were stained with the probe and then analyzed via Flow cytometry.
# MDA-MB-231 [7] = assay: cellular ROS, DCF-DA probe, flow cytometry; conditions: 5 μM
# Description: as §5
structure (smiles),measurement,setting,value
"Oc1ccccc1-c1nc(-c2ccccc2O)n(CCCCCCCCCC[P+](c2ccccc2)(c2ccccc2)c2ccccc2)n1 [Compound 2, (10-(3,5-bis(2-hydroxyphenyl)-1H-1,2,4-triazol-1-yl)decyl)triphenylphosphonium Bromide]",IC50,MCF7 cells,0.175 µM
same,IC50,MDA-MB-231 cells,0.464 µM
same,IC50,cancer cell lines,~0.1 µM
same,dead cells (AnnexinV/PI),MCF7 [1]; 1 μM,44.2 (0.3) %
same,dead cells (AnnexinV/PI),MCF7 [1]; 2 μM,41.2 (0.4) %
same,dead cells (AnnexinV/PI),MCF7 [1]; 5 μM,60.8 (18.6) %
same,dead cells (AnnexinV/PI),MDA-MB-231 [2]; 1 μM,26.7 (5.8) %
same,dead cells (AnnexinV/PI),MDA-MB-231 [2]; 2 μM,38.5 (7.3) %
same,dead cells (AnnexinV/PI),MDA-MB-231 [2]; 5 μM,87.8 (4.2) %
same,chemiluminescence ATP values normalized to control sample set as 100,[3],2.82 (0.28)
same,proportion of cells in G1,MCF7 [4]; 24 hrs,74.0 (1.3)
same,proportion of cells in G2,MCF7 [4]; 24 hrs,20.3
same,proportion of cells in S,MCF7 [4]; 24 hrs,5.7
same,proportion of cells in G1,MCF7 [4]; 48 hrs,77.5 (2.2)
same,proportion of cells in G2,MCF7 [4]; 48 hrs,11.7 (3.8)
same,proportion of cells in S,MCF7 [4]; 48 hrs,10.8 (4.8)
same,proportion of cells in G1,MDA-MB-231 [5]; 24 hrs,64.0 (7.7)
same,proportion of cells in G2,MDA-MB-231 [5]; 24 hrs,28.8 (8.0)
same,proportion of cells in S,MDA-MB-231 [5]; 24 hrs,7.3
same,proportion of cells in G1,MDA-MB-231 [5]; 48 hrs,74.1 (3.7)
same,proportion of cells in G2,MDA-MB-231 [5]; 48 hrs,18.5 (5.1)
same,proportion of cells in S,MDA-MB-231 [5]; 48 hrs,7.4
same,DCF-DA mean fluorescence,"MCF7 [6]; 5 min, MCF7 (0 min = 100)",316.5 (96.0)
same,DCF-DA mean fluorescence,"MCF7 [6]; 10 min, MCF7",558.3 (186.5)
same,DCF-DA mean fluorescence,"MCF7 [6]; 15 min, MCF7",821.5 (73.8)
same,DCF-DA mean fluorescence,"MCF7 [6]; 30 min, MCF7",1201.0 (444.0)
same,DCF-DA mean fluorescence,"MCF7 [6]; 60 min, MCF7",1029.0 (407.7)
same,DCF-DA mean fluorescence,"MDA-MB-231 [7]; 5 min, MDA-MB-231 (0 min = 100)",255.9 (66.3)
same,DCF-DA mean fluorescence,"MDA-MB-231 [7]; 10 min, MDA-MB-231",343.5 (78.9)
same,DCF-DA mean fluorescence,"MDA-MB-231 [7]; 15 min, MDA-MB-231",555.6 (122.4)
same,DCF-DA mean fluorescence,"MDA-MB-231 [7]; 30 min, MDA-MB-231",473.4 (136.1)
same,DCF-DA mean fluorescence,"MDA-MB-231 [7]; 60 min, MDA-MB-231",332.0 (158.7)

# Source: patent publication US20220251124A1, “3,5-BIS(PHENYL)-1H-HETEROARYL DERIVATIVES AS MEDICAMENTS” (INSTITUTE OF BIOTECHNOLOGY CAS, V.V.I., priority 2019, published 2022)
